Measurements published in ChEMBL document CHEMBL1949526, “Cyclic hydroxyamidines as amide isosteres: discovery of oxadiazolines and oxadiazines as potent and highly efficacious γ-secretase modulators in vivo” (J Med Chem, 2012).
pIC50: −log10 of the molar value.

Tests used:
Rattus norvegicus [1] = assay: Antialzheimer activity in CD rat assessed as reduction in amyloid beta42 level in cortex administered as po for 6 days by alphaLISA analysis relative to total amyloid beta level; type: functional, organism-based
[2] = Half life in monkey at 3 mg/kg, iv; type: ADME, organism-based, Macaca mulatta; set-up: dose 3 mg/kg, route intravenous; settings: rhesus monkey, in vivo
Rattus norvegicus [3] = assay: Antialzheimer activity in CD rat assessed as reduction in total amyloid beta level in plasma at 10 mg/kg, po after 3 hrs by alphaLISA analysis; type: functional; set-up: scale not given: the % may be the effect or the level left
[4] = Oral bioavailability in rat at 10 mg/kg; type: ADME, organism-based; settings: in vivo
Rattus norvegicus [5] = assay: Antialzheimer activity in CD rat assessed as reduction in amyloid beta42 level in cortex at 10 mg/kg, po after 3 hrs by alphaLISA analysis; type: functional; set-up: scale not given: the % may be the effect or the level left
[6] = Ratio of drug level in brain to plasma in CD rat at 10 mg/kg, po after 3 hrs; type: ADME, organism-based; set-up: dose 10 mg/kg, route oral; settings: read-out: BPR
Gamma-secretase [7] = assay: Modulation of gamma-secretase-mediated cleavage of human APP Swedish and London mutation expressed in HEK293 cells assessed as reduction of total amyloid beta level after 5 hrs by sandwich immunoassay; type: cell-based
[8] = Cmax in dog at 10 mg/kg, po; type: ADME, organism-based, Canis lupus familiaris; set-up: dose 10 mg/kg, route oral; settings: in vivo
Rattus norvegicus [9] = organism: Rattus norvegicus; assay: Toxicity in rat assessed as decrease in thymus size at highest tolerable dose; type: organism-based; settings: in vivo
Rattus norvegicus [10] = assay: Antialzheimer activity in CD rat assessed as reduction in amyloid beta40 level in CSF at 10 mg/kg, po after 3 hrs by alphaLISA analysis; type: functional; set-up: scale not given: the % may be the effect or the level left
Rattus norvegicus [11] = organism: Rattus norvegicus; assay: Toxicity in rat assessed as effect on HES-1 expression in jejunum at highest tolerable dose; type: organism-based; settings: in vivo
Rattus norvegicus [12] = assay: Antialzheimer activity in po dosed CD rat assessed as reduction in amyloid beta42 level in cortex after 3 hrs by alphaLISA analysis relative to total amyloid beta level; type: functional, organism-based
[13] = Half life in dog at 3 mg/kg, iv; type: ADME, organism-based, Canis lupus familiaris; set-up: dose 3 mg/kg, route intravenous; settings: in vivo
[14] = Permeability from apical to basolateral side of human Caco2 cells; type: ADME, cell-based; settings: Caco-2, read-out: permeability
[15] = AUC in dog at 10 mg/kg, po; type: ADME, organism-based, Canis lupus familiaris, Plasma; set-up: dose 10 mg/kg, route oral; settings: plasma
[16] = Volume of distribution at steady state in dog at 3 mg/kg, iv; type: ADME, organism-based, Canis lupus familiaris; set-up: dose 3 mg/kg, route intravenous; settings: in vivo, read-out: Vdss
[17] = Clearance in rat at 3 mg/kg, iv; type: ADME, organism-based; set-up: dose 3 mg/kg, route intravenous; settings: in vivo
Rattus norvegicus [18] = assay: Antialzheimer activity in CD rat assessed as reduction in amyloid beta42 level in plasma administered as po for 6 days by alphaLISA analysis relative to total amyloid beta level; type: functional, organism-based
Rattus norvegicus [19] = assay: Antialzheimer activity in po dosed CD rat assessed as reduction in amyloid beta42 level in plasma after 3 hrs by alphaLISA analysis relative to total amyloid beta level; type: functional, organism-based
[20] = AUC in monkey at 10 mg/kg, po; type: ADME, organism-based, Macaca mulatta; set-up: dose 10 mg/kg, route oral; settings: rhesus monkey, plasma
Rattus norvegicus [21] = assay: Antialzheimer activity in po dosed CD rat assessed as reduction in amyloid beta42 level in cortex after 3 hrs by alphaLISA analysis relative to amyloid beta40 level; type: functional, organism-based
Rattus norvegicus [22] = organism: Rattus norvegicus; assay: Toxicity in rat assessed as production of goblet cell meta/hyperplasia in ileum at highest tolerable dose; type: organism-based; settings: in vivo
Gamma-secretase [23] = assay: Modulation of gamma-secretase-mediated cleavage of human APP Swedish and London mutation expressed in HEK293 cells assessed as inhibition of amyloid beta42 production after 5 hrs by sandwich immunoassay; type: cell-based
[24] = Oral bioavailability in dog at 10 mg/kg; type: ADME, organism-based, Canis lupus familiaris; settings: in vivo
Rattus norvegicus [25] = organism: Rattus norvegicus; assay: Toxicity in rat assessed as effect on adipsin expression in jejunum at highest tolerable dose; type: organism-based; settings: in vivo
[26] = Plasma concentration in CD rat at 10 mg/kg, po after 3 hrs; type: ADME, organism-based; set-up: dose 10 mg/kg, route oral
[27] = AUC in rat at 10 mg/kg, po; type: ADME, organism-based, Plasma; set-up: dose 10 mg/kg, route oral; settings: plasma
Rattus norvegicus [28] = assay: Antialzheimer activity in po dosed CD rat assessed as reduction in amyloid beta42 level in CSF after 3 hrs by alphaLISA analysis relative to amyloid beta40 level; type: functional, organism-based
[29] = Oral bioavailability in monkey at 10 mg/kg; type: ADME, organism-based, Macaca mulatta; settings: rhesus monkey, in vivo
Gamma-secretase [30] = assay: Modulation of gamma-secretase-mediated notch signaling in HEK293 cells transfected with human APP Swedish and London mutation and Notch1 with truncated extracellular EGF repeat domain assessed as production of notch intracellular domain by MSD-based sandwich immunoassay; type: cell-based
Rattus norvegicus [31] = assay: Antialzheimer activity in CD rat assessed as reduction in amyloid beta42 level in cortex administered as po for 6 days by alphaLISA analysis relative to total amyloid beta40 level; type: functional, organism-based
[32] = Clearance in dog at 3 mg/kg, iv; type: ADME, organism-based, Canis lupus familiaris; set-up: dose 3 mg/kg, route intravenous; settings: in vivo
Rattus norvegicus [33] = organism: Rattus norvegicus; assay: Toxicity in rat assessed as decrease in body weight at highest tolerable dose; type: organism-based; settings: in vivo
[34] = Cmax in rat at 10 mg/kg, po; type: ADME, organism-based; set-up: dose 10 mg/kg, route oral; settings: in vivo
Rattus norvegicus [35] = assay: Antialzheimer activity in po dosed CD rat assessed as reduction in amyloid beta42 level in plasma after 3 hrs by alphaLISA analysis relative to amyloid beta40 level; type: functional, organism-based
Gamma-secretase [36] = assay: Modulation of gamma-secretase-mediated cleavage of human APP Swedish and London mutation expressed in HEK293 cells assessed as inhibition of amyloid beta40 production after 5 hrs by sandwich immunoassay; type: cell-based
Rattus norvegicus [37] = assay: Antialzheimer activity in po dosed CD rat assessed as reduction in amyloid beta42 level in CSF after 3 hrs by alphaLISA analysis relative to total amyloid beta level; type: functional, organism-based
Rattus norvegicus [38] = assay: Antialzheimer activity in CD rat assessed as reduction in amyloid beta42 level in CSF administered as po for 6 days by alphaLISA analysis relative to total amyloid beta40 level; type: functional, organism-based
Rattus norvegicus [39] = assay: Antialzheimer activity in CD rat assessed as reduction in amyloid beta42 level in CSF at 10 mg/kg, po after 3 hrs by alphaLISA analysis; type: functional; set-up: scale not given: the % may be the effect or the level left
[40] = Clearance in monkey at 3 mg/kg, iv; type: ADME, organism-based, Macaca mulatta; set-up: dose 3 mg/kg, route intravenous; settings: rhesus monkey, in vivo
Rattus norvegicus [41] = assay: Antialzheimer activity in CD rat assessed as reduction in amyloid beta42 level in plasma administered as po for 6 days by alphaLISA analysis relative to total amyloid beta40 level; type: functional, organism-based
Rattus norvegicus [42] = assay: Antialzheimer activity in CD rat assessed as reduction in total amyloid beta level in CSF at 10 mg/kg, po after 3 hrs by alphaLISA analysis; type: functional; set-up: scale not given: the % may be the effect or the level left
Rattus norvegicus [43] = assay: Antialzheimer activity in CD rat assessed as reduction in amyloid beta42 level in plasma at 10 mg/kg, po after 3 hrs by alphaLISA analysis; type: functional; set-up: scale not given: the % may be the effect or the level left
[44] = Volume of distribution at steady state in monkey at 3 mg/kg, iv; type: ADME, organism-based, Macaca mulatta; set-up: dose 3 mg/kg, route intravenous; settings: rhesus monkey, in vivo, read-out: Vdss
Rattus norvegicus [45] = assay: Antialzheimer activity in CD rat assessed as reduction in amyloid beta40 level in cortex at 10 mg/kg, po after 3 hrs by alphaLISA analysis; type: functional; set-up: scale not given: the % may be the effect or the level left
Canis familiaris = organism: Canis familiaris; assay: Cardiotoxicity in dog assessed as effect on electrocardiographic QTc interval at compound concentration required for pharmacological effect; type: toxicity, organism-based, Canis lupus familiaris; settings: in vivo
[46] = Volume of distribution at steady state in rat at 3 mg/kg, iv; type: ADME, organism-based; set-up: dose 3 mg/kg, route intravenous; settings: in vivo, read-out: Vdss
Rattus norvegicus [47] = assay: Antialzheimer activity in CD rat assessed as reduction in amyloid beta42 level in CSF administered as po for 6 days by alphaLISA analysis relative to total amyloid beta level; type: functional, organism-based
Rattus norvegicus [48] = assay: Antialzheimer activity in CD rat assessed as reduction in amyloid beta40 level in plasma at 10 mg/kg, po after 3 hrs by alphaLISA analysis; type: functional; set-up: scale not given: the % may be the effect or the level left
[49] = Cmax in monkey at 10 mg/kg, po; type: ADME, organism-based, Macaca mulatta; set-up: dose 10 mg/kg, route oral; settings: rhesus monkey, in vivo
[50] = Half life in rat at 3 mg/kg, iv; type: ADME, organism-based; set-up: dose 3 mg/kg, route intravenous; settings: in vivo

- half-life [2]: 3 h
- bioavailability [4]: 98%
- Kp at 3 h [6]: 0.15
- pIC50 (Gamma-secretase [7]): 4.85
- Cmax [8]: 4 µM
- half-life [13]: 1.4 h
- Papp A→B [14]: 30.2 ×10⁻⁶ cm/s
- AUC [15]: 26 µM·h
- Vd [16]: 0.4 L/kg
- clearance [17]: 6.1 mL/min/kg
- AUC [20]: 30 µM·h
- pIC50 (Gamma-secretase [23]): 7.54
- bioavailability [24]: 38%
- concentration at 3 h [26]: 3.6 µM
- AUC [27]: 61 µM·h
- bioavailability [29]: 48%
- pIC50 (Gamma-secretase [30]): < 4.30
- clearance [32]: 5 mL/min/kg
- Cmax [34]: 7.5 µM
- pIC50 (Gamma-secretase [36]): 6.77
- clearance [40]: 6 mL/min/kg
- Vd [44]: 1.4 L/kg
- Vd [46]: 1.6 L/kg
- Cmax [49]: 8.8 µM
- half-life [50]: 3.4 h
SMILES: COc1cc(/C=C2\CCCN3C2=NO[C@]3(CO)c2ccc(F)cc2)ccc1-n1cnc(C)c1
- Activity (Rattus norvegicus [1]): Dose-dependent effect
- Activity (Rattus norvegicus [3]): 77%
- Activity (Rattus norvegicus [5]): 37%
- Activity (Rattus norvegicus [9]): Non-toxic
- Activity (Rattus norvegicus [10]): 104%
- Activity (Rattus norvegicus [11]): Non-toxic
- Activity (Rattus norvegicus [12]): Dose-dependent effect
- Activity (Rattus norvegicus [18]): Dose-dependent effect
- Activity (Rattus norvegicus [19]): Dose-dependent effect
- Activity (Rattus norvegicus [21]): Dose-dependent effect
- Activity (Rattus norvegicus [22]): Non-toxic
- Activity (Rattus norvegicus [25]): Non-toxic
- Activity (Rattus norvegicus [28]): Dose-dependent effect
- Activity (Rattus norvegicus [31]): Dose-dependent effect
- Activity (Rattus norvegicus [33]): Non-toxic
- Activity (Rattus norvegicus [35]): Dose-dependent effect
- Activity (Rattus norvegicus [37]): Dose-dependent effect
- Activity (Rattus norvegicus [38]): Dose-dependent effect
- Activity (Rattus norvegicus [39]): 66%
- Activity (Rattus norvegicus [41]): Dose-dependent effect
- Activity (Rattus norvegicus [42]): 120%
- Activity (Rattus norvegicus [43]): 41%
- Activity (Rattus norvegicus [45]): 77%
- Activity (Canis familiaris): Non-toxic
- Activity (Rattus norvegicus [47]): Dose-dependent effect
- Activity (Rattus norvegicus [48]): 44%
